# From patent US11508483B2, “Method of identifying a subgroup of patients suffering from dcSSc which benefits from a treatment with sGC stimulators and sGC activators in a higher degree than a control group” (ADVERIO PHARMA GMBH, priority 2018, dated 2022)
# Columns and labels:
# [1] = test system: patients with dcSSc; assay: RISE-SSc clinical study: Health Assessment Questionnaire disability index (HAQ-DI); assay type: in vivo, human; conditions: Riociguat vs placebo, week 52
# Description: The Health Assessment Questionnaire Disability Index (HAQ-DI) is a well-accepted measure of physical function for various rheumatic diseases, and it is the most widely employed and reported measure for assessing physical function in SSc. As a post hoc analysis in study 16277, the percentage of patients stratified by HAQ-DI categorized change was also performed. Clinically meaningful disease improvement was defined as a decrease in HAQ-DI of more than −0.21 from baseline to week 52; stabilization and/or disease worsening were defined as a change in HAQ-DI less than or equal to −0.21 from baseline to week 52. […] The primary efficacy outcome measure was the change in mRSS from baseline to week 52. Key secondary efficacy measure was Combined Response Index for Systemic Sclerosis (CRISS).
# [2] = test system: patients with dcSSc; assay: RISE-SSc clinical study: lung function, FVC % predicted; assay type: in vivo, human; conditions: for Difference in LSMeans with regard to FVC % predicted: Riociguat vs placebo, week 52
# Description: Pulmonary physiologic measures, particularly FVC, have frequently been used as surrogate endpoints for SSc-ILD and IPF. […] Also in IPF measurable decline in FVC is correlated with mortality. […] The primary efficacy outcome measure was the change in mRSS from baseline to week 52. Key secondary efficacy measure was Combined Response Index for Systemic Sclerosis (CRISS).
# [3] = test system: human dermal fibroblasts of SSc patients; conditions: in vitro; cited from earlier work
# [4] = test system: patients with dcSSc; assay: RISE-SSc clinical study: modified Rodnan skin score (mRSS); assay type: in vivo, human; design: key to Difference in LSMeans with regard to mRSS: mRSS points (skin thickness score, max 51); conditions: for Difference in LSMeans with regard to mRSS: Riociguat vs placebo, week 52; for mean change of mRSS for Riociguat compared to placebo: baseline to week 52
# Description: The modified Rodnan skin score (mRSS) is a measure of skin thickness and is used as a primary or secondary outcome measure in clinical trials of systemic sclerosis. The maximum mRSS possible is 51. Standardization of the modified Rodnan skin score for use in clinical trials of systemic sclerosis is described in Khanna, D. et al., 2017b. […] The primary efficacy outcome measure was the change in mRSS from baseline to week 52. Key secondary efficacy measure was Combined Response Index for Systemic Sclerosis (CRISS).
# [5] = test system: TGFβ-induced skin fibrosis; conditions: mouse, in vivo; cited from earlier work
# [6] = test system: systemic sclerosis patients; conditions: cited from earlier work
# [7] = subgroup FVC % predicted at baseline 50-75
# [8] = subgroup FVC % predicted at baseline >75
# [9] = subgroup anti-RNA polymerase III autoantibodies negative
# [10] = subgroup anti-RNA polymerase III autoantibodies positive
compound,measurement,setting,value
"COC(=O)N(C)c1c(N)nc(-c2nn(Cc3ccccc3F)c3ncccc23)nc1N [Riociguat, methyl 4,6-diamino-2-[1-(2-fluorobenzyl)-1H-pyrazolo[3,4-b]pyridin-3-yl]-5-pyrimidinyl(methyl)carbamate]",Difference in LSMeans with regard to HAQ-DI,[1]; [7],−0.22
same,Difference in LSMeans with regard to HAQ-DI,[1]; [8],−0.07
same,Difference in LSMeans with regard to HAQ-DI,[1]; [9],0.02
same,Difference in LSMeans with regard to HAQ-DI,[1]; [10],−0.44
same,Difference in LSMeans with regard to HAQ-DI,[1]; subgroup hsCRP >10 mg/L,−0.13
same,Difference in LSMeans with regard to HAQ-DI,[1]; subgroup hsCRP ≤10 mg/L,−0.03
same,change of lung function (FVC % predicted) at week 52 compared to baseline,"[2]; Riociguat group, dcSSc patients positive for anti-RNA polymerase III autoantibodies",+1.2
same,Difference in LSMeans with regard to FVC % predicted,[2]; [7],9.2
same,Difference in LSMeans with regard to FVC % predicted,[2]; [8],−1.3
same,Difference in LSMeans with regard to FVC % predicted,[2]; subgroup ILD at baseline no,−1.7
same,Difference in LSMeans with regard to FVC % predicted,[2]; subgroup ILD at baseline yes,5.1
same,Difference in LSMeans with regard to FVC % predicted,[2]; [9],−0.9
same,Difference in LSMeans with regard to FVC % predicted,[2]; [10],3.5
same,Difference in LSMeans with regard to FVC % predicted,[2]; subgroup hsCRP >10 mg/L,2.4
same,Difference in LSMeans with regard to FVC % predicted,[2]; subgroup hsCRP ≤10 mg/L,−0.5
same,collagen production,[3],reduce collagen production
same,Difference in LSMeans with regard to mRSS,[4]; [7],−8.0
same,Difference in LSMeans with regard to mRSS,[4]; [8],−1.7
same,Difference in LSMeans with regard to mRSS,[4]; [9],0.3
same,Difference in LSMeans with regard to mRSS,[4]; [10],−10.5
same,Difference in LSMeans with regard to mRSS,[4]; subgroup hsCRP >3 mg/L,−5.8
same,Difference in LSMeans with regard to mRSS,[4]; subgroup hsCRP >10 mg/L,−7.5
same,Difference in LSMeans with regard to mRSS,[4]; subgroup hsCRP ≤3 mg/L,1.0
same,Difference in LSMeans with regard to mRSS,[4]; subgroup hsCRP ≤10 mg/L,−1.2
same,mean change of mRSS for Riociguat compared to placebo,[4]; patients with FVC % predicted at baseline of 50-75,−7.9 units
same,mean change of mRSS for Riociguat compared to placebo,[4]; patients with hsCRP>10 mg/L,−7.5 units
same,mean change of mRSS for Riociguat compared to placebo,[4]; patients with hsCRP>3,−5.8 units
same,mean change of mRSS for Riociguat compared to placebo,[4]; patients ≥65 y of age,−6.7 units
Nc1nc(-c2nn(Cc3ccccc3F)c3ncccc23)ncc1C1CC1 [BAY 41-2272],collagen production,[3],reduce collagen production
same,progression of TGFβ-induced skin fibrosis,[5],prevented the progression
Tocilizumab: monoclonal anti-IL-6 receptor-α antibody approved e.g. for the treatment of patients with rheumatoid arthritis,skin score and FVC in placebo-treated patients who transitioned to tocilizumab,[6]; open-label period,skin score improvement and FVC stabilization
same,influence of anti-RNA polymerase III autoantibody profile on the effect on change in mRSS or ppFVC,[6]; week 48,little clinically meaningful influence
